Results: patent US20190127366A1 (LifeSci Pharmaceuticals, Inc., priority 2015, published 2019)

Target: T1, human complement factor D (Homo sapiens, UniProt P00746)
T1 construct: purchased R&D Systems 1824-SE
Test: In vitro enzyme inhibition (Z-Lys-SBzl/DTNB absorbance assay)
Format: biochemical
Conditions: Complement Factor D (R&D Systems), substrate Z-Lys-SBzl, A405 nm; read-out: CFD IC50
Summary of the method: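 Factor D (6.25 ng/μL before addition) preincubated 5 min RT with compound (8 points from 50 μM, 6-fold, 0.5% DMSO final) in 50 mM Tris/HCl pH 7.5, 1 M NaCl, then Z-Lys-SBzl/DTNB added (200 μM each before addition). A405 read kinetically every 30 s for 60 min; IC50 from variable-slope fit, controls with and without enzyme.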

T1 sequence (P00746 26-253): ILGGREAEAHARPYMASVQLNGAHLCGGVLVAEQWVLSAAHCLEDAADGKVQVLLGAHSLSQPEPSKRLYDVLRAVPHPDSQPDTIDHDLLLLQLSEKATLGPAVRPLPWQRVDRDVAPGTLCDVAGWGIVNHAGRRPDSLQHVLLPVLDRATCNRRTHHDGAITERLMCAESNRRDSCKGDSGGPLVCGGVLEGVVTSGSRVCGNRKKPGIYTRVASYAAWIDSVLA

## NC(=O)c1nn(CC(=O)N2[C@H](C(=O)NCc3cccc(Cl)n3)C[C@@H]3CCC[C@@H]32)c2ccccc12 [Example 160, 1-(2-((2S,3aS,6aS)-2-(((6-chloropyridin-2-yl)methyl)carbamoyl)hexahydrocyclopenta[b]pyrrol-1(2H)-yl)-2-oxoethyl)-1H-indazole-3-carboxamide]
  IC50: 1000 to 10000 nM

## CC(C)(C)OC(=O)N1CCN(C(=O)Cn2nc(C(N)=O)c3ccccc32)[C@H](C(=O)Nc2cccc(Cl)n2)C1 [Example 25, (S)-tert-butyl 4-(2-(3-carbamoyl-1H-indazol-1-yl)acetyl)-3-((6-chloropyridin-2-yl)carbamoyl)piperazine-1-carboxylate]
  IC50: 1000 to 10000 nM

## CC(O)c1nn(CC(=O)N2CC[C@H]2C(=O)NCc2cccc(Cl)c2F)c2ccccc12 (stereo partly drawn) [Example 193, (2S)-N-(3-chloro-2-fluorobenzyl)-1-(2-(3-(1-hydroxyethyl)-1H-indazol-1-yl)acetyl)azetidine-2-carboxamide]
  IC50: 1000 to 10000 nM

## NC(=O)c1nn(CC(=O)N2[C@@H]3CC[C@@H](C3)[C@H]2C(=O)NCc2c(CO)ccc(Cl)c2F)c2ccccc12 [Example 120, 1-(2-((1R,3S,4S)-3-((3-chloro-2-fluoro-6-(hydroxymethyl)benzyl)carbamoyl)-2-azabicyclo[2.2.1]heptan-2-yl)-2-oxoethyl)-1H-indazole-3-carboxamide]
  IC50: 1000 to 10000 nM

## NC(=O)c1nn(CC(=O)N2[C@@H]3CC[C@@H](C3)[C@H]2C(=O)Nc2cccc(Cl)n2)c2ccc(F)cc12 [Example 62, 1-(2-((1R,3S,4S)-3-((6-chloropyridin-2-yl)carbamoyl)-2-azabicyclo[2.2.1]heptan-2-yl)-2-oxoethyl)-5-fluoro-1H-indazole-3-carboxamide]
  IC50: 100 to 1000 nM

## NC(=O)c1nn(CC(=O)N2CCNC[C@H]2C(=O)Nc2cccc(Cl)n2)c2ccccc12 [Example 26, (S)-1-(2-(2-((6-chloropyridin-2-yl)carbamoyl)piperazin-1-yl)-2-oxoethyl)-1H-indazole-3-carboxamide]
  IC50: > 10000 nM

## NC(=O)c1nn(CC(=O)N2CCCCC[C@H]2C(=O)NCc2cccc(Cl)c2F)c2ccccc12 [Example 31, (S)-1-(2-(2-((3-chloro-2-fluorobenzyl)carbamoyl)azepan-1-yl)-2-oxoethyl)-1H-indazole-3-carboxamide]
  IC50: 100 to 1000 nM

## CC(C)=C(F)C(C)NC(=O)[C@@H]1[C@H]2CC[C@H](C2)N1C(=O)Cn1nc(C(N)=O)c2ccccc21 (stereo partly drawn) [Example 135, 1-(2-((1R,3S,4S)-3-((3-fluoro-4-methylpent-3-en-2-yl)carbamoyl)-2-azabicyclo[2.2.1]heptan-2-yl)-2-oxoethyl)-1H-indazole-3-carboxamide]
  IC50: > 10000 nM

## NC(=O)c1nn(CC(=O)N2CCOC[C@H]2C(=O)Nc2cccc(Br)n2)c2ccccc12 [Example 24, (S)-N-(6-bromopyridin-2-yl)-4-(2-(3-carbamoyl-1H-indazol-1-yl)acetyl)morpholine-3-carboxamide]
  IC50: 1000 to 10000 nM

## COC(=O)C(NC(=O)[C@@H]1[C@H]2CC[C@H](C2)N1C(=O)Cn1nc(C(N)=O)c2ccccc21)c1cccc(Cl)c1F (stereo partly drawn) [Example 136, methyl 2-((1R,3S,4S)-2-(2-(3-carbamoyl-1H-indazol-1-yl)acetyl)-2-azabicyclo[2.2.1]heptane-3-carboxamido)-2-(3-chloro-2-fluorophenyl)acetate]
  IC50: 1000 to 10000 nM

## NC(=O)c1nn(CC(=O)N2CCC3CC32C(=O)NCc2cccc(Cl)c2F)c2ccccc12 (stereo not shown) [Example 147, 1-(2-(1-((3-chloro-2-fluorobenzyl)carbamoyl)-2-azabicyclo[3.1.0]hexan-2-yl)-2-oxoethyl)-1H-indazole-3-carboxamide]
  IC50: > 10000 nM

## NCCC(NC(=O)[C@@H]1[C@H]2CC[C@H](C2)N1C(=O)Cn1nc(C(N)=O)c2ccccc21)c1cccc(Cl)c1F (stereo partly drawn) [Example 145, 1-(2-((1R,3S,4S)-3-((3-amino-1-(3-chloro-2-fluorophenyl)propyl)carbamoyl)-2-azabicyclo[2.2.1]heptan-2-yl)-2-oxoethyl)-1H-indazole-3-carboxamide]
  IC50: 1000 to 10000 nM

## NC(=O)c1nn(CC(=O)N2[C@@H]3CC[C@@H](C3)[C@H]2C(=O)Nc2cc(Cl)ccn2)c2ccccc12 [Example 51, 1-(2-((1R,3S,4S)-3-((4-chloropyridin-2-yl)carbamoyl)-2-azabicyclo[2.2.1]heptan-2-yl)-2-oxoethyl)-1H-indazole-3-carboxamide]
  IC50: 1000 to 10000 nM

## N#Cc1ccc(Cl)c(F)c1CNC(=O)[C@@H]1[C@H]2CC[C@H](C2)N1C(=O)Cn1nc(C(N)=O)c2ccccc21 [Example 119, 1-(2-((1R,3S,4S)-3-((3-chloro-6-cyano-2-fluorobenzyl)carbamoyl)-2-azabicyclo[2.2.1]heptan-2-yl)-2-oxoethyl)-1H-indazole-3-carboxamide]
  IC50: 1000 to 10000 nM

## NC(=O)c1nn(CC(=O)N2[C@@H]3CC[C@@H](C3)[C@H]2C(=O)Nc2cc(CO)cc(Cl)n2)c2ccccc12 [Example 105, 1-(2-((1R,3S,4S)-3-((6-chloro-4-(hydroxymethyl)pyridin-2-yl)carbamoyl)-2-azabicyclo[2.2.1]heptan-2-yl)-2-oxoethyl)-1H-indazole-3-carboxamide]
  IC50: 100 to 1000 nM

## NC(=O)c1nc(CC(=O)N2CC[C@H]2C(=O)NCc2cccc(Cl)c2F)n2ccccc12 [Example 191, (S)-3-(2-(2-((3-chloro-2-fluorobenzyl)carbamoyl)azetidin-1-yl)-2-oxoethyl)imidazo[1,5-a]pyridine-1-carboxamide]
  IC50: 100 to 1000 nM

## CC(=O)c1nc(CC(=O)N2CC[C@H]2C(=O)NCc2cccc(Cl)c2F)n2ccccc12 [Example 192, (S)-1-(2-(1-acetylimidazo[1,5-a]pyridin-3-yl)acetyl)-N-(3-chloro-2-fluorobenzyl)azetidine-2-carboxamide]
  IC50: 1000 to 10000 nM

## NC(=O)c1nn(CC(=O)N2CCCNCC2C(=O)NCc2cccc(Cl)c2F)c2ccccc12 (stereo not shown) [Example 33, 1-(2-(2-((3-chloro-2-fluorobenzyl)carbamoyl)-1,4-diazepan-1-yl)-2-oxoethyl)-1H-indazole-3-carboxamide]
  IC50: > 10000 nM

## NC(=O)c1nn(CC(=O)N2CCCCC[C@H]2C(=O)Nc2cccc(Cl)c2F)c2ccccc12 [Example 32, (S)-1-(2-(2-((3-chloro-2-fluorophenyl)carbamoyl)azepan-1-yl)-2-oxoethyl)-1H-indazole-3-carboxamide]
  IC50: 1000 to 10000 nM

## NC(=O)Cc1nn(CC(=O)N2[C@@H]3CC[C@@H](C3)[C@H]2C(=O)Nc2cccc(Cl)n2)c2ccccc12 [Example 94, (1R,3S,4S)-2-(2-(3-(2-amino-2-oxoethyl)-1H-indazol-1-yl)acetyl)-N-(6-chloropyridin-2-yl)-2-azabicyclo[2.2.1]heptane-3-carboxamide]
  IC50: 1000 to 10000 nM

## NC(=O)c1nn(CC(=O)N2[C@@H]3CC[C@@H](C3)[C@H]2C(=O)NCc2cccc(Cl)c2F)c2cc(CCO)ccc12 [Example 129, 1-(2-((1R,3S,4S)-3-((3-chloro-2-fluorobenzyl)carbamoyl)-2-azabicyclo[2.2.1]heptan-2-yl)-2-oxoethyl)-6-(2-hydroxyethyl)-1H-indazole-3-carboxamide]
  IC50: 1000 to 10000 nM

## NC(=O)c1nn(CC(=O)N2[C@@H]3CC[C@@H](C3)[C@H]2C(=O)Nc2cncc(Cl)c2)c2ccccc12 [Example 58, 1-(2-((1R,3S,4S)-3-((5-chloropyridin-3-yl)carbamoyl)-2-azabicyclo[2.2.1]heptan-2-yl)-2-oxoethyl)-1H-indazole-3-carboxamide]
  IC50: 1000 to 10000 nM

## NC(=O)c1nn(CC(=O)N2[C@@H]3CC[C@@H](C3)[C@H]2C(=O)Nc2cccc(-c3ccccc3F)n2)c2ccccc12 [Example 46, 1-(2-((1R,3S,4S)-3-((6-(2-fluorophenyl)pyridin-2-yl)carbamoyl)-2-azabicyclo[2.2.1]heptan-2-yl)-2-oxoethyl)-1H-indazole-3-carboxamide]
  IC50: > 10000 nM

## Cc1ccc(NC(=O)[C@@H]2[C@H]3CC[C@H](C3)N2C(=O)Cn2nc(C(N)=O)c3ccccc32)nc1Cl [Example 68, 1-(2-((1R,3S,4S)-3-((6-chloro-5-methylpyridin-2-yl)carbamoyl)-2-azabicyclo[2.2.1]heptan-2-yl)-2-oxoethyl)-1H-indazole-3-carboxamide 2,2,2-trifluoroacetate]
  IC50: 100 to 1000 nM

## NC(=O)c1nn(CC(=O)N2[C@@H]3CC[C@@H](C3)[C@H]2C(=O)NCc2cc(Cl)ccc2Cl)c2ccccc12 [Example 69, 1-(2-((1R,3S,4S)-3-((2,5-dichlorobenzyl)carbamoyl)-2-azabicyclo[2.2.1]heptan-2-yl)-2-oxoethyl)-1H-indazole-3-carboxamide]
  IC50: 1000 to 10000 nM

## COc1ccc2c(c1)c(C(N)=O)nn2CC(=O)N1[C@H](C(=O)Nc2cccc(Cl)n2)C[C@@H]2CCC[C@@H]21 [Example 170, 1-(2-((2S,3aS,6aS)-2-((6-chloropyridin-2-yl)carbamoyl)hexahydrocyclopenta[b]pyrrol-1(2H)-yl)-2-oxoethyl)-5-methoxy-1H-indazole-3-carboxamide]
  IC50: 100 to 1000 nM

## NC(=O)c1nn(CC(=O)N2[C@H](C(=O)Nc3cccc(Cl)n3)C[C@@H]3CCC[C@@H]32)c2cc(F)ccc12 [Example 172, 1-(2-((2S,3aS,6aS)-2-((6-chloropyridin-2-yl)carbamoyl)hexahydrocyclopenta[b]pyrrol-1(2H)-yl)-2-oxoethyl)-6-fluoro-1H-indazole-3-carboxamide 2,2,2-trifluoroacetate]
  IC50: 100 to 1000 nM

## COc1ccc2c(c1)c(C(C)=O)nn2CC(=O)N1[C@H](C(=O)Nc2cccc(Cl)n2)C[C@@H]2CCC[C@@H]21 [Example 175, (2S,3aS,6aS)-1-(2-(3-acetyl-5-methoxy-1H-indazol-1-yl)acetyl)-N-(6-chloropyridin-2-yl)octahydrocyclopenta[b]pyrrole-2-carboxamide]
  IC50: 100 to 1000 nM
